Results as given in patent US8420677B2, “Use of 3,3′-diindolylmethane” (priority 2008, dated 2013).

Tested on: D257A mice
Test: Auditory brainstem response (ABR) hearing function test in D257A mice fed the compounds
Type: in vivo
Excerpt: The test system was D257A−/− (D257A) mice that express a proofreading-deficient version of the mitochondrial DNA polymerase γ (POLG). These mice display features of accelerated aging including age related hearing loss (presbycusis). Hearing loss can be monitored by an elevation in auditory-evoked brainstem response (Kujoth et al., Science 309, 481-484, 2005).
Heterozygous D257A (−1+) mice were bred to generate homozogous D257A (−/−) mice, denoted D257A hereafter. Animals were identified with specific numbering and ear clippings. D257A mice were placed in various dietary regimens following PCR based genotyping and weaning at 3 weeks of age. Mice received a diet based on AIN-93M maintenance purified diet (TestDiet, Richmond, USA), with neither no supplementation (Control group), or supplementation with DIM (40 mg/kg, BioResponse LLC Boulder, Colo.), (−)-epigallocatechin gallate, or (EGCG) (300 mg/kg, DSM Nutritional Products, Switzerland).
Hearing function was tested in 9 month-old D257A mice receiving the various compounds. Auditory brainstem responses (ABRs) were measured with a tone burst stimulus (8, 16 and 32 kHz) using an ABR recording system (Intelligent Hearing System, Miami Fla.). Animals were anesthetized with a mixture of xylazine hydrochloride (10 mg/kg, i.m.) and ketamine hydrochloride (40 mg/kg, i.m.), and needle electrodes were placed subcutaneously at the vertex (active electrode), beneath the pinna of the measured ear (reference electrode), and beneath the opposite ear (ground). The stimulus duration, presentation rate, and rise/fall time was 3 ms, 19.3/s, and 1 ms respectively. Responses of 1024 sweeps were averaged at each intensity level (5 dB steps) to access the hearing threshold. The hearing threshold was defined as the lowest intensity level at which a clear reproducible waveform was visible in the trace. Means of ABR thresholds were compared at 8, 16 and 32 kHz.

Structure (SMILES): c1ccc2c(Cc3c[nH]c4ccccc34)c[nH]c2c1 [DIM, 3,3′-diindolylmethane]
- hearing threshold (auditory-evoked brain stem response threshold) (8 kHz, 9 month-old D257A mice, DIM 40 mg/kg in diet, control approximately 40 dB): approximately 10 dB
- deaf mice (no auditory-evoked brainstem response) (8 kHz, 9 month-old D257A mice, diet supplementation from weaning (DIM 40 mg/kg, EGCG 300 mg/kg), control 3 out of 8 deaf): no deaf mice
- percentage of deaf mice (32 kH, 9 month-old D257A mice, compared to the control group and the other tested compounds): significantly lower
- effect on age related hearing loss (supplementation from early age on, D257A mice): protective effect
